ChEMBL document CHEMBL4840374, “Cytochalasin Derivatives from the Endozoic Curvularia verruculosa CS-129, a Fungus Isolated from the Deep-Sea Squat Lobster Shinkaia crosnieri Living in the Cold Seep Environment” (J Nat Prod, 2021)

Key:
HCT-116 = experiment: Cytotoxicity against human HCT-116 cells assessed as reduction in cell viability after 72 hrs by MTT assay; assay type: functional, cell-based
HepG2 = experiment: Cytotoxicity against human HepG2 cells assessed as reduction in cell viability after 72 hrs by MTT assay; assay type: functional, cell-based
MCF7 = experiment: Cytotoxicity against human MCF7 cells assessed as reduction in cell viability after 72 hrs by MTT assay; assay type: functional, cell-based
Edwardsiella tarda = experiment: Antibacterial activity against […] QDIO-10 assessed as reduction in microbial growth by microtiter plate reader assay; assay type: functional
Vibrio parahaemolyticus = experiment: Antibacterial activity against Vibrio parahaemolyticus QDIO-8 assessed as reduction in microbial growth by microtiter plate reader assay; assay type: functional
Escherichia coli = experiment: Antibacterial activity against Escherichia coli EMBLC-1 assessed as reduction in microbial growth by microtiter plate reader assay; assay type: functional
[1] = Homo sapiens, HCT-116, 72 h, read-out: IC50
[2] = Homo sapiens, HepG2, 72 h, read-out: IC50
[3] = Homo sapiens, MCF7, 72 h, read-out: IC50

Row | MIC (Edwardsiella tarda) [µg/mL] | SMILES | IC50 (HCT-116; [1]) [µM] | IC50 (HepG2; [2]) [µM] | IC50 (MCF7; [3]) [µM] | also measured
1 |  | C=C1[C@@H](C)[C@H]2[C@H](Cc3ccccc3)NC(=O)[C@]23OC(=O)/C=C/CCCC[C@@H](C)C/C=C/[C@H]3[C@@H]1O |  |  |  | IC50 (HCT-116; hct-116): Not Active; IC50 (HepG2; hepg2): Not Active; IC50 (MCF7; mcf7): Not Active
2 | 8 | C=C1[C@@H](C)[C@H]2[C@H](Cc3ccccc3)NC(=O)[C@]23OC(=O)/C=C/[C@H](O)[C@H](O)CC[C@@H](C)C/C=C/[C@H]3[C@@H]1O | 9.5 | 6.4 | 6 | 
3 | 0.5 | O=C(N[C@H](CO)[C@H](O)c1ccc([N+](=O)[O-])cc1)C(Cl)Cl [CHLORAMPHENICOL] |  |  |  | MIC (Vibrio parahaemolyticus): 2 µg/mL
4 | 8 | C[C@H]1C/C=C/[C@H]2[C@@H]3O[C@]3(C)[C@@H](C)[C@H]3[C@H](Cc4ccccc4)NC(=O)[C@]32OC(=O)/C=C/[C@H](O)CCC1 |  |  |  | 
5 |  | C=C1[C@@H](C)[C@H]2[C@H](Cc3ccccc3)NC(=O)[C@]23C(=O)/C=C/[C@H](O)CCC[C@@H](C)C/C=C/[C@H]3[C@@H]1O [DEOXAPHOMIN] | 7.6 | 7.1 | 7 | 
6 |  | C=C1[C@@H](C)[C@H]2[C@H](Cc3ccccc3)NC(=O)[C@]23OC(=O)/C=C/[C@H](O)CCC[C@@H](C)C/C=C/[C@H]3[C@@H]1O [CYTOCHALASIN B] | 12 | 9.5 | 5.2 | MIC (Vibrio parahaemolyticus): 4 µg/mL
7 |  | C=C1[C@@H](C)[C@H]2[C@H](Cc3ccccc3)NC(=O)[C@]23OC(=O)[C@@H](S[C@H]2CC(=O)CCC[C@@H](C)C/C=C/[C@H]4[C@H](O)C(=C)[C@@H](C)[C@H]5[C@H](Cc6ccccc6)NC(=O)[C@]54OC2=O)CC(=O)CCC[C@@H](C)C/C=C/[C@H]3[C@@H]1O |  |  |  | MIC (Escherichia coli): 2 µg/mL
